Like-named read-outs stand apart in the source and are kept apart here.

The target in experiment [1] is BTK enzyme (recombinant full-length BTK, hBTK) (Homo sapiens (Human), UniProt Q06187). In words: BTK enzymatic activity LANCE TR-FRET assay. The class given is biochemical. The note with it: 50 pM hBTK, 25 μM ATP, 2 μM biotin-A5-peptide; compound range 1 μM to 0.017 nM; read-out: BTK binding IC50. For orientation: TR-FRET usually uses a lanthanide donor and a delayed reading to cut background.

In experiment [2] the test system is adenosine uptake into HeLa cells. Nature of the experiment: [3H]Adenosine uptake assay in HeLa cells. The class given is cell-based. The note with it: [3H]adenosine accumulation in HeLa cells, compound range 10 μM to 0.032 nM, read-out: ADU inhibition IC50. In a few lines: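 IC50 came from a 4-parameter fit of counts per second over a ten-point, 1:3 titration (final 10 µM down to […]). Compound was applied 30 min at ambient temperature in HBSS/5% FBS before a 500 nM [3H]adenosine solution was added; uptake ran 60 min, read by Cytostar-T proximity scintillation.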

BTK enzyme (recombinant full-length BTK, hBTK), sequence (Q06187 whole entry): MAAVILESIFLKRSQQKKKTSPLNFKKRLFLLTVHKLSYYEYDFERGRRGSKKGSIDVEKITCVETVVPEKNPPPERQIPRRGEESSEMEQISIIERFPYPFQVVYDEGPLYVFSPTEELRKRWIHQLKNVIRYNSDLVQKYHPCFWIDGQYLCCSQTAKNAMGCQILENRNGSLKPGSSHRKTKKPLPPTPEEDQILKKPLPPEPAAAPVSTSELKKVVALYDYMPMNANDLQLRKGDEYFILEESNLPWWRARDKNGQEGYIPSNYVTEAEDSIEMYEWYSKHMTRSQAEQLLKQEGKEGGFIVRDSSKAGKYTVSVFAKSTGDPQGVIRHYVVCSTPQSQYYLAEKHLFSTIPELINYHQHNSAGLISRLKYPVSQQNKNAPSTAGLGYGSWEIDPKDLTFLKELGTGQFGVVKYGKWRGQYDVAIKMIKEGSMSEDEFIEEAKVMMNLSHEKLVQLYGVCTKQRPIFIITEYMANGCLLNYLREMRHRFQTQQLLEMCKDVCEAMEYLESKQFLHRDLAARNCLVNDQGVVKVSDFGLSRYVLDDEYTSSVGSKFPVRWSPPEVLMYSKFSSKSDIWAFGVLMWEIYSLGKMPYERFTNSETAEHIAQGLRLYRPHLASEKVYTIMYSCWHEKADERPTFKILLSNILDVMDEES

As a reminder, the IC50 is the concentration that gives 50% inhibition. Take `C[C@](O)(c1ccc(-c2nc([C@@H]3CC[C@H]4CCC(=O)N4C3)n3ccnc(N)c23)cc1)c1ccc(C(F)(F)F)s1` [Example 111, (6R,8aS)-6-[8-amino-1-(4-{(1S)-1-hydroxy-1-[5-(trifluoromethyl)thiophen-2-yl]ethyl}phenyl)imidazo [1,5-a]pyrazin-3-yl]hexahydroindolizin-3(2H)-one]: the 50% inhibitory concentration (IC50) in experiment [1] amounted to 1000 nM; in experiment [2], 722 nM.
For `Nc1nccn2c([C@@H]3CC[C@H]4CCC(=O)N4C3)nc(-c3ccc(C(O)(c4cccc(C(F)(F)F)c4)C(F)F)cc3)c12` (stereo partly drawn) [Example 112, (6R,8aS)-6-[8-amino-1-(4-{2,2-difluoro-1-hydroxy-1-[3-(trifluoromethyl)phenyl]ethyl}phenyl)imidazo [1,5-a]pyrazin-3-yl]hexahydroindolizin-3(2H)-one], in that order: 5.6 nM and 1870 nM.
The corresponding values for `C[C@](O)(c1ccc(-c2nc([C@@H]3CC[C@H]4CCC(=O)N4C3)n3ccnc(N)c23)cc1)c1ccc(C(F)(F)F)s1` [Example 113, (6R,8aS)-6-[8-amino-1-(4-{(1S)-1-hydroxy-1-[5-(trifluoromethyl)thiophen-2-yl]ethyl}phenyl)imidazo [1,5-a]pyrazin-3-yl]hexahydroindolizin-3(2H)-one] are 30.9 nM and 2140 nM.
As to `CN1CC[C@@H]2CC[C@@H](c3nc(-c4ccc([C@@](C)(O)c5cccc(C(F)(F)F)c5)cc4)c4c(N)nccn34)CN2C1=O` [Example 114, (4aS,7R)-7-[8-amino-1-(4-{(1R)-1-hydroxy-1-[3-(trifluoromethyl)phenyl]ethyl}phenyl)imidazo [1,5-a]pyrazin-3-yl]-2-methyloctahydro-1H-pyrido[1,2-c]pyrimidin-1-one], the IC50 is 0.22 nM in experiment [1] and 888 nM in experiment [2] (Homo sapiens, HeLa).
The corresponding values for `CN1CC[C@@H]2CC[C@@H](c3nc(-c4ccc([C@](C)(O)c5cccc(C(F)(F)F)c5)cc4)c4c(N)nccn34)CN2C1=O` [Example 115, (4aS,7R)-7-[8-amino-1-(4-{(1S)-1-hydroxy-1-[3-(trifluoromethyl)phenyl]ethyl}phenyl)imidazo [1,5-a]pyrazin-3-yl]-2-methyloctahydro-1H-pyrido[1,2-c]pyrimidin-1-one] are 51.9 nM and 172 nM.
As to `C[C@](O)(c1ccc(-c2nc([C@@H]3CC[C@H]4CCC(=O)N4C3)n3c(Cl)cnc(N)c23)cc1)c1cccc(C2CC2)c1` [Example 116, (6R,8aS)-6-(8-amino-5-chloro-1-{4-[(1S)-1-(3-cyclopropylphenyl)-1-hydroxyethyl]phenyl}imidazo[1,5-a]pyrazin-3-yl)hexahydroindolizin-3(2H)-one], the IC50 in experiment [1] was determined as 0.87 nM; in experiment [2] (Homo sapiens, HeLa), 458 nM.
The corresponding values for `C[C@@](O)(c1ccc(-c2nc([C@@H]3CC[C@H]4CCC(=O)N4C3)n3c(Cl)cnc(N)c23)cc1)c1cccc(C2CC2)c1` [Example 117, (6R,8aS)-6-(8-amino-5-chloro-1-{4-[(1R)-1-(3-cyclopropylphenyl)-1-hydroxyethyl]phenyl}imidazo[1,5-a]pyrazin-3-yl)hexahydroindolizin-3(2H)-one] are 0.12 nM and 956 nM.
For `CN1CC[C@H]2CC[C@H](c3nc(-c4ccc([C@@](C)(O)c5cccc(C(F)(F)F)c5)cc4)c4c(N)nccn34)CN2C1=O` [Example 118, (4aR,7S)-7-[8-amino-1-(4-{(1R)-1-hydroxy-1-[3-(trifluoromethyl)phenyl]ethyl}phenyl)imidazo [1,5-a]pyrazin-3-yl]-2-methyloctahydro-1H-pyridol[1,2-c]pyrimidin-1-one], the IC50 in experiment [1] is 83.2 nM; in experiment [2] (Homo sapiens, HeLa), 1490 nM.
For `CC(C)N1CC(=O)N2C[C@H](c3nc(-c4ccc([C@@](C)(O)c5cccc(C(F)(F)F)c5)cc4)c4c(N)nccn34)CC[C@H]2C1` [Example 119, (7R,9aS)-7-(8-amino-1-(4-{(1R)-1-hydroxy-1-[3-(trifluoromethyl)phenyl]ethyl}phenyl)imidazo [1,5-a]pyrazin-3-yl]-2-(1-methylethyl)octahydro-4H-pyrido[1,2-a]pyrazin-4-one], the 50% inhibitory concentration (IC50) in experiment [1] was found to be 33.1 nM; in experiment [2] (Homo sapiens, HeLa) it was 2410 nM.
Take `CC(C)N1CC(=O)N2C[C@@H](c3nc(-c4ccc([C@@](C)(O)c5cccc(C(F)(F)F)c5)cc4)c4c(N)nccn34)CC[C@@H]2C1` [Example 120, (7S,9aR)-7-[8-amino-1-(4-{(1R)-1-hydroxy-1-[3-(trifluoromethyl)phenyl]ethyl}phenyl)imidazo [1,5-a]pyrazin-3-yl]-2-(1-methylethyl)octahydro-4H-pyrido[1,2-a]pyrazin-4-one]: the IC50 in experiment [1] is 5.1 nM; in experiment [2] (Homo sapiens, HeLa), 4670 nM.
With `C[C@@](O)(c1ccc(-c2nc([C@@H]3CC[C@H]4CCC(=O)N4C3)n3c(Cl)cnc(N)c23)cc1)c1cccc(CC(F)(F)F)c1` [Example 121, (6R,8aS)-6-[8-amino-5-chloro-1-(4-{(1R)-1-hydroxy-1-[3-(2,2,2-trifluoroethyl)phenyl]ethyl}phenyl)imidazo[1,5-a]pyrazin-3-yl]hexahydroindolizin-3(2H)-one], the IC50 stood at 0.18 nM in experiment [1] and 1940 nM in experiment [2] (Homo sapiens, HeLa).
Consider `C[C@](O)(c1ccc(-c2nc([C@@H]3CC[C@H]4CCC(=O)N4C3)n3c(Cl)cnc(N)c23)cc1)c1cccc(CC(F)(F)F)c1` [Example 122, (6R,8aS)-6-[8-amino-5-chloro-1-(4-{(1S)-1-hydroxy-1-(3-(2,2,2-trifluoroethyl)phenyl]ethyl}phenyl)imidazo[1,5-a]pyrazin-3-yl]hexahydroindolizin-3(2H)-one], for which the IC50 is 2.7 nM in experiment [1] and 966 nM in experiment [2] (Homo sapiens, HeLa).
For `CC(C)(c1cccc([C@@](C)(O)c2ccc(-c3nc([C@@H]4CC[C@H]5CCC(=O)N5C4)n4c(Cl)cnc(N)c34)cc2)c1)C(F)(F)F` [Example 123, (6R,8aS)-6-[8-amino-5-chloro-1-(4-{(1S)-1-hydroxy-1-[3-(2,2,2-trifluoro-1,1-dimethylethyl)phenyl]ethyl}phenyl)imidazo[1,5-a]pyrazin-3-yl]hexahydroindolizin-3(2H)-one], in that order: 117 nM and 945 nM.
The corresponding values for `CC(C)(c1cccc([C@](C)(O)c2ccc(-c3nc([C@@H]4CC[C@H]5CCC(=O)N5C4)n4c(Cl)cnc(N)c34)cc2)c1)C(F)(F)F` [Example 124, (6R,8aS)-6-[8-amino-5-chloro-1-(4-{(1R)-1-hydroxy-1-[3-(2,2,2-trifluoro-1,1-dimethylethyl)phenyl]ethyl}phenyl)imidazo[1,5-a]pyrazin-3-yl]hexahydroindolizin-3(2H)-one] are 1.2 nM and 1450 nM.
The corresponding values for `Nc1nccn2c([C@@H]3CC[C@H]4CCC(=O)N4C3)nc(-c3ccc(C(O)c4cc(C(F)(F)F)ccc4F)cc3)c12` (stereo partly drawn) [Example 125, (6R,8aS)-6-(8-amino-1-(4-{[2-fluoro-5-(trifluoromethyl)phenyl] (hydroxy)methyl}phenyl)imidazo[1,5-a]pyrazin-3-yl]hexahydroindolizin-3(2H)-one] are 824 nM and 1180 nM.
As for `Nc1ncc(Cl)n2c([C@@H]3CC[C@H]4CCC(=O)N4C3)nc(-c3ccc(C(O)c4cc(C(F)(F)F)ccc4F)cc3)c12` (some centres unmarked) [Example 126], the IC50 was found to be 1000 nM in experiment [1] and 1070 nM in experiment [2] (Homo sapiens, HeLa).
For `Cc1ccc(C(F)(F)F)cc1C(O)c1ccc(-c2nc([C@@H]3CC[C@H]4CCC(=O)N4C3)n3ccnc(N)c23)cc1` (stereo partly drawn) [Example 127, (6R,8aS)-6-[8-amino-1-(4-{hydroxy[2-methyl-5-(trifluoromethyl)phenyl]methyl}phenyl)imidazo [1,5-a]pyrazin-3-yl]hexahydroindolizin-3(2H)-one], in that order: 459 nM and 2140 nM.
Consider `Nc1nccn2c([C@@H]3CC[C@H]4CCC(=O)N4C3)nc(-c3ccc(C(O)c4cc(C(F)(F)F)ccc4F)cc3)c12` (some centres unmarked) [Example 128], for which the half-maximal inhibitory concentration (IC50) in experiment [1] was 12.4 nM; in experiment [2], 1470 nM.
On to `Nc1ncc(Cl)n2c([C@@H]3CC[C@H]4CCC(=O)N4C3)nc(-c3ccc(C(O)c4cc(C(F)(F)F)ccc4F)cc3)c12` (stereo partly drawn) [Example 129, (6R,8aS)-6-[8-amino-5-chloro-1-(4-{[2-fluoro-5-(trifluoromethyl)phenyl] (hydroxy)methyl}phenyl)imidazo[1,5-a]pyrazin-3-yl]hexahydroindolizin-3(2H)-one], for which the IC50 in experiment [1] was found to be 12.2 nM; in experiment [2], 1660 nM.
As to `Cc1ccc(C(F)(F)F)cc1C(O)c1ccc(-c2nc([C@@H]3CC[C@H]4CCC(=O)N4C3)n3ccnc(N)c23)cc1` (stereo partly drawn) [Example 130, (6R,8aS)-6-[8-amino-1-(4-{hydroxy[2-methyl-5-(trifluoromethyl)phenyl]methyl}phenyl)imidazo [1,5-a]pyrazin-3-yl]hexahydroindolizin-3(2H)-one], the IC50 worked out at 12.7 nM in experiment [1] and 1440 nM in experiment [2].
Take `CC(F)(F)c1cccc([C@@](C)(O)c2ccc(-c3nc([C@@H]4CC[C@H]5CCC(=O)N5C4)n4ccnc(N)c34)cc2)c1` [Example 131, (6R,8aS)-6-[8-amino-1-(4-{(1S)-1-[3-(1,1-difluoroethyl)phenyl]-1-hydroxyethyl}phenyl)imidazo[1,5-a]pyrazin-3-yl]hexahydroindolizin-3(2H)-one]: the IC50 in experiment [1] came to 64.4 nM; in experiment [2] (Homo sapiens, HeLa) it was 436 nM.
With `CC(F)(F)c1cccc([C@](C)(O)c2ccc(-c3nc([C@@H]4CC[C@H]5CCC(=O)N5C4)n4ccnc(N)c34)cc2)c1` [Example 132, (6R,8aS)-6-[8-amino-1-(4-{(1R)-1-[3-(1,1-difluoroethyl)phenyl]-1-hydroxyethyl}phenyl)imidazo[1,5-a]pyrazin-3-yl]hexahydroindolizin-3(2H)-one], the IC50 came out at 0.3 nM in experiment [1] and 2950 nM in experiment [2] (Homo sapiens, HeLa).

Source of the values: US10214546B2, “Btk inhibitors” (MERCK SHARP & DOHME CORP., priority 2014, dated 2019).
